Molecules are shown by their SMILES.

Common to all, as to format: in vivo
Assay [1] deals with Phytophthora infestans. In words: whole plant or invertebrate. Particulars: tomato late blight.
In assay [2] the test system is Phytophthora infestans. In words: whole plant or invertebrate. The settings on record: tomato late blight. The source holds these as a separate data set.
The subject of assay [3] is Erysiphe graminis f. sp. tritici. In words: Test E: wheat powdery mildew, spray the day before inoculation (disease rating, 100 = 100% disease control). The essentials:
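Protective test: spores of E. graminis f. sp. tritici dusted on wheat seedlings one day after run-off spraying of test suspension (acetone/water with 250 ppm surfactant; 200 ppm = 500 g/ha). Ratings after 7 days in growth chamber at 20° C, 100 = full control, 0 = none, relative to controls.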

In assay [4] the test system is Plasmopara viticola. In words: Test B: grape downy mildew, spray 24 h after inoculation (disease rating, 100 = 100% disease control). The essentials: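 This is a curative spray test, applied 24 h after inoculation. Compounds in 50/50 acetone–water with 250 ppm Trem 014 surfactant were sprayed to run-off on P. viticola-infected seedlings, with 200 ppm equating to 500 g/ha. Plants were kept 5 days in a 20 °C growth chamber, then 24 h humid, and scored 0–100 for disease control relative to controls.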

Assay [5] concerns Pseudoperonospora cubensis. In words: Test F: cucumber downy mildew, DMSO/acetone/water test suspension, spray the day before inoculation (disease rating, 100 = 100% disease control). The text has this:
The test compounds were first dissolved in dimethyl sulfoxide (DMSO) in an amount equal to 4% of the final volume and then suspended at the desired concentration (in ppm) in acetone and purified water (30/70 mix by volume). The resulting test suspensions were then used in test F. Spraying a 250 ppm test suspension on the test plants was the equivalent of a rate of 250 g/ha.
The test suspension was sprayed on cucumber seedlings. The following day the seedlings were inoculated with a spore suspension of Pseudoperonospora cubensis (the causal agent of cucumber downy mildew) and incubated in a saturated atmosphere at 20° C. for 24 h, and then moved to a growth chamber at 20° C. for 6 days, after which disease ratings were made.
Results for Tests A-F are given in Table A. In the table, a rating of 100 indicates 100% disease control and a rating of 0 indicates no disease control (relative to the controls). A dash (-) indicates no test results.

Setting [6] is: spray the day before inoculation, compounds without asterisk (not 40 or 10 ppm).
Where [7] appears, read: spray 17 h after inoculation, compounds without asterisk (not 40 or 10 ppm).
[8] abbreviates: spray 24 h after inoculation, compounds without asterisk (not 40 or 10 ppm).
Where [9] appears, read: DMSO/acetone/water suspension, spray the day before inoculation, compounds without asterisk.
[10] abbreviates: spray the day before inoculation, tested at 40 ppm.

As to `COc1ccc(Br)cc1CC(=O)N1CCC(c2nc(C(=O)N(C)[C@H](C)c3ccccc3)cs2)CC1` [compound 81], the “Test C disease rating (100 = 100% disease control, 0 = no disease control)” value in assay [1] (setting [6]) is 100%. Moreover, the “Test D disease rating (100 = 100% disease control, 0 = no disease control)” value in assay [2] (setting [7]) is 100%. For the same compound, the “Test E disease rating (100 = 100% disease control, 0 = no disease control)” value in assay [3] (setting [6]) stood at 0%. Also, the “Test B disease rating (100 = 100% disease control, 0 = no disease control)” value in assay [4] (setting [8]) was found to be 100%. In assay [5] (setting [9]), the “Test F disease rating (100 = 100% disease control, 0 = no disease control)” value was 50%.

For `CCCC(c1ccccc1)N(C)C(=O)c1csc(C2CCN(C(=O)Cc3cc(C)ccc3C)CC2)n1` (stereo not drawn) [compound 82], the “Test C disease rating (100 = 100% disease control, 0 = no disease control)” value in assay [1] (setting [6]) is given as 97%. In addition, in assay [2] (setting [7]), the “Test D disease rating (100 = 100% disease control, 0 = no disease control)” value worked out at 53%. For the same compound, the “Test E disease rating (100 = 100% disease control, 0 = no disease control)” value in assay [3] (setting [6]) is on record as 55%. The “Test B disease rating (100 = 100% disease control, 0 = no disease control)” value in assay [4] (setting [8]) is recorded as 100%. The “Test F disease rating (100 = 100% disease control, 0 = no disease control)” value in assay [5] (setting [9]) was 93%.

With `Cc1cccc(CC(=O)N2CCN(c3nc(C(=O)N(C)[C@H](C)c4ccccc4)co3)CC2)c1` [compound 52], the “Test C disease rating (100 = 100% disease control, 0 = no disease control)” value in assay [1] (setting [6]) amounted to 100%. In addition, the “Test D disease rating (100 = 100% disease control, 0 = no disease control)” value in assay [2] (setting [7]) turned out to be 74%. For the same compound, in assay [3] (setting [6]), the “Test E disease rating (100 = 100% disease control, 0 = no disease control)” value worked out at 0%. The “Test B disease rating (100 = 100% disease control, 0 = no disease control)” value in assay [4] (setting [8]) is listed as 20%. In addition, the “Test F disease rating (100 = 100% disease control, 0 = no disease control)” value in assay [5] (setting [9]) was 96%.

In the case of `Cc1ccc(F)cc1CC(=O)N1CCC(c2nc(C(=O)N(C)[C@H](C)c3ccccc3)cs2)CC1` [compound 80], in assay [1] (setting [6]), the “Test C disease rating (100 = 100% disease control, 0 = no disease control)” value amounted to 100%. The “Test D disease rating (100 = 100% disease control, 0 = no disease control)” value in assay [2] (setting [7]) was found to be 70%. Also, in assay [3] (setting [6]), the “Test E disease rating (100 = 100% disease control, 0 = no disease control)” value is 29%. In assay [4] (setting [8]), the “Test B disease rating (100 = 100% disease control, 0 = no disease control)” value was determined as 99%. For the same compound, the “Test F disease rating (100 = 100% disease control, 0 = no disease control)” value in assay [5] (setting [9]) is 49%.

In the case of `Cc1ccc(C)c(CC(=O)N2CCC(c3nc(C(=O)N(C)[C@@H](C)c4ccccc4)cs3)CC2)c1` [compound 68], the “Test C disease rating (100 = 100% disease control, 0 = no disease control)” value in assay [1] (setting [6]) turned out to be 100%. In assay [2] (setting [7]), the “Test D disease rating (100 = 100% disease control, 0 = no disease control)” value is on record as 16%. In addition, the “Test E disease rating (100 = 100% disease control, 0 = no disease control)” value in assay [3] (setting [6]) came out at 0%. Also, the “Test B disease rating (100 = 100% disease control, 0 = no disease control)” value in assay [4] (setting [8]) is on record as 47%. Besides, the “Test F disease rating (100 = 100% disease control, 0 = no disease control)” value in assay [5] (setting [9]) is listed as 95%.

For `Cc1cc(C)n(CC(=O)N2CCC(c3nc(C(=O)N(C)[C@H](C)c4ccccc4)cs3)CC2)n1` [compound 65], the “Test C disease rating (100 = 100% disease control, 0 = no disease control)” value in assay [1] (setting [6]) came out at 100%. In assay [2] (setting [7]), the “Test D disease rating (100 = 100% disease control, 0 = no disease control)” value is 100%. Moreover, the “Test E disease rating (100 = 100% disease control, 0 = no disease control)” value in assay [3] (setting [6]) is on record as 0%. In addition, the “Test B disease rating (100 = 100% disease control, 0 = no disease control)” value in assay [4] (setting [8]) is given as 92%. In assay [5] (setting [9]), the “Test F disease rating (100 = 100% disease control, 0 = no disease control)” value turned out to be 100%.

On to `COc1ccc(CCNC(=O)c2csc(C3CCN(C(=O)Cc4cc(C)ccc4C)CC3)n2)cc1OC` [compound 288], for which the “Test D disease rating (100 = 100% disease control, 0 = no disease control)” value in assay [2] (sprayed 17 h after inoculation, unmarked compounds (no asterisk, not 40 or 10 ppm)) is listed as 76. In addition, the “Test E disease rating (100 = 100% disease control, 0 = no disease control)” value in assay [3] (sprayed the day before inoculation, 7 days at 20° C., unmarked compounds (no asterisk, not 40 or 10 ppm)) is given as 0. The “Test B disease rating (100 = 100% disease control, 0 = no disease control)” value in assay [4] (sprayed 24 h after inoculation, unmarked compounds (no asterisk, not 40 or 10 ppm)) amounted to 73. For the same compound, in assay [5] (DMSO/acetone/water test suspension, sprayed the day before inoculation, unmarked compounds (no asterisk)), the “Test F disease rating (100 = 100% disease control, 0 = no disease control)” value came to 95.

On to `Cc1cc(C(F)(F)F)nn1CC(=O)N1CCC(c2nc(C(=O)N(C)C(c3ccc(Cl)cc3)C(F)(F)F)cs2)CC1` (stereo not drawn) [compound 253], for which the “Test C disease rating (100 = 100% disease control, 0 = no disease control)” value in assay [1] (sprayed the day before inoculation, tested at 40 ppm (*)) was 90. Also, the “Test D disease rating (100 = 100% disease control, 0 = no disease control)” value in assay [2] (sprayed 17 h after inoculation, tested at 40 ppm (*)) was determined as 67. In addition, the “Test E disease rating (100 = 100% disease control, 0 = no disease control)” value in assay [3] (sprayed the day before inoculation, 7 days at 20° C., tested at 40 ppm (*)) turned out to be 0. In addition, the “Test B disease rating (100 = 100% disease control, 0 = no disease control)” value in assay [4] (sprayed 24 h after inoculation, tested at 40 ppm (*)) is recorded as 96.

For the compound `CC(=O)OC1CCC(N(C)C(=O)c2csc(C3CCN(C(=O)Cn4nc(C(F)(F)F)cc4C)CC3)n2)c2ccccc21` (stereo not drawn) [compound 212], the “Test C disease rating (100 = 100% disease control, 0 = no disease control)” value in assay [1] (setting [10]) is 100%. The “Test D disease rating (100 = 100% disease control, 0 = no disease control)” value in assay [2] (spray 17 h after inoculation, tested at 40 ppm) was found to be 99%. In addition, the “Test E disease rating (100 = 100% disease control, 0 = no disease control)” value in assay [3] (setting [10]) turned out to be 0%. The “Test B disease rating (100 = 100% disease control, 0 = no disease control)” value in assay [4] (spray 24 h after inoculation, tested at 40 ppm) amounted to 97%.

The values are drawn from US8586611B2 (priority 2005, dated 2013).
